Data taken from PubChem BioAssay AID330 (DTP/NCI, 2004).
Several values for one entry are separate records, joined by “and”; a condition that tells them apart may be missing. Identical values can stand only once. Inconclusive results and toxic doses are left out. Rule for the calls: active = survival T/C of 150% or more; inactive = T/C below 125% in these data.

Tested on: P388 leukemia ip, CD2F1 mice, survival T/C
Experiment: NCI In Vivo Anticancer Drug Screen. Data for tumor model P388 Leukemia (intraperitoneal) in CD2F1 (CDF1) mice
Conditions: endpoint: median survival time, higher = longer survival
How it was run: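 Mice carrying the transplanted tumor received test compound or vehicle. Survival was recorded in each group, and the value is the treated-group measurement divided by that of the vehicle-treated control group.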

[1] = dose: 50.0 mg/kg/injection, schedule: Q01DX009 (ip), vehicle: saline with Tween-80
[2] = dose: 50.0 mg/kg/injection, schedule: Q01DX005 (ip), vehicle: Klucel (hydroxypropylcellulose) (HPC)
[3] = dose: 100.0 mg/kg/injection, schedule: Q01DX005 (ip), vehicle: Klucel (hydroxypropylcellulose) (HPC)
[4] = dose: 200.0 mg/kg/injection, schedule: Q01DX005 (ip), vehicle: Klucel (hydroxypropylcellulose) (HPC)
[5] = dose: 3.12 mg/kg/injection, schedule: Q01DX005 (ip), vehicle: saline
[6] = dose: 6.25 mg/kg/injection, schedule: Q01DX005 (ip), vehicle: saline
[7] = dose: 12.5 mg/kg/injection, schedule: Q01DX005 (ip), vehicle: saline
[8] = dose: 100.0 mg/kg/injection, schedule: Q01DX009 (ip), vehicle: saline
[9] = dose: 200.0 mg/kg/injection, schedule: Q01DX009 (ip), vehicle: saline
[10] = dose: 400.0 mg/kg/injection, schedule: Q01DX009 (ip), vehicle: saline

Measured: T/C

N#Cc1ccc(C(=O)C=[N+]=[N-])cc1
inactive: dose: 100.0 mg/kg/injection, schedule: Q04DX003 (ip), vehicle: Klucel (hydroxypropylcellulose) (HPC) 109 % of control | dose: 200.0 mg/kg/injection, schedule: Q04DX003 (ip), vehicle: Klucel (hydroxypropylcellulose) (HPC) 93 % of control | dose: 400.0 mg/kg/injection, schedule: Q04DX003 (ip), vehicle: Klucel (hydroxypropylcellulose) (HPC) 100 % of control

CCC[CH2][Sn]([CH2]CCC)([NH]c1ncnc2[nH]cnc12)[NH]c1ncnc2[nH]cnc12
inactive: dose: 1.56 mg/kg/injection, schedule: Q01DX005 (ip), vehicle: Klucel (hydroxypropylcellulose) (HPC) 98 % of control | dose: 3.12 mg/kg/injection, schedule: Q01DX005 (ip), vehicle: Klucel (hydroxypropylcellulose) (HPC) 110 % of control | dose: 6.25 mg/kg/injection, schedule: Q01DX005 (ip), vehicle: Klucel (hydroxypropylcellulose) (HPC) 121 % of control

CCOC(=O)C(c1ccccc1)(S(C)(=O)=O)S(C)(=O)=O
inactive: dose: 12.5 mg/kg/injection, schedule: Q01DX009 (ip), vehicle: saline with Tween-80 108 % of control | dose: 25.0 mg/kg/injection, schedule: Q01DX009 (ip), vehicle: saline with Tween-80 112 % of control | [1] 104 % of control

Cc1ccc(C2ON2S(=O)(=O)c2ccc(C)cc2)cc1 (configuration not stated)
inactive: dose: 50.0 mg/kg/injection, schedule: Q01DX009 (ip), vehicle: Klucel (hydroxypropylcellulose) (HPC) 113 % of control | dose: 100.0 mg/kg/injection, schedule: Q01DX009 (ip), vehicle: Klucel (hydroxypropylcellulose) (HPC) 105 % of control | dose: 200.0 mg/kg/injection, schedule: Q01DX009 (ip), vehicle: Klucel (hydroxypropylcellulose) (HPC) 100 % of control

COc1cc2c(cc1O)-c1c(cnn1-c1ccc([N+](=O)[O-])cc1[N+](=O)[O-])CCC2
inactive: dose: 100.0 mg/kg/injection, schedule: Q04DX003 (ip), vehicle: saline 100 % of control | dose: 200.0 mg/kg/injection, schedule: Q04DX003 (ip), vehicle: saline 99 % of control | dose: 400.0 mg/kg/injection, schedule: Q04DX003 (ip), vehicle: saline 96 % of control

CC1CCCC2=C1C(O)c1c(N)cccc1C2O (configuration not stated)
inactive: [2] 96 % of control | [3] 101 % of control | [4] 94 % of control

COc1cccc2c1C(=O)c1c(O)c3c(c(O)c1C2=O)C[C@@](O)(/C=N\O)C[C@@H]3OC1CC(N)C(O)C(C)O1 (some centres not stated)
active: dose: 50.0 mg/kg/injection, schedule: Q04DX003 (ip), vehicle: water 163 % of control
inactive: dose: 3.13 mg/kg/injection, schedule: Q04DX003 (ip), vehicle: water 109 % of control | dose: 6.25 mg/kg/injection, schedule: Q04DX003 (ip), vehicle: water 118 % of control | dose: 12.5 mg/kg/injection, schedule: Q04DX003 (ip), vehicle: water 116 % of control | dose: 25.0 mg/kg/injection, schedule: Q04DX003 (ip), vehicle: water 111 % of control

COc1cccc2c1C(CO)N1C(C#N)C3CC(C(=O)O)C(C1C2)N3C (configuration not stated)
inactive: dose: 0.78 mg/kg/injection, schedule: Q01DX005 (ip), vehicle: suspension in saline 116 % of control and 122 % of control | dose: 1.56 mg/kg/injection, schedule: Q01DX005 (ip), vehicle: suspension in saline 122 % of control
active: [5] 150 % of control | [6] 157 % of control | dose: 6.25 mg/kg/injection, schedule: Q01DX005 (ip), vehicle: suspension in saline 159 % of control | [7] 160 % of control | dose: 12.5 mg/kg/injection, schedule: Q01DX005 (ip), vehicle: suspension in saline 150 % of control and 178 % of control and 186 % of control | dose: 25.0 mg/kg/injection, schedule: Q01DX005 (ip), vehicle: saline 200 % of control

O=C1Nc2ccccc2C12OCCS2 (configuration not stated)
inactive: dose: 60.0 mg/kg/injection, schedule: Q01DX005 (ip), vehicle: saline with Tween-80 91 % of control | dose: 120.0 mg/kg/injection, schedule: Q01DX005 (ip), vehicle: saline with Tween-80 98 % of control | dose: 240.0 mg/kg/injection, schedule: Q01DX005 (ip), vehicle: saline with Tween-80 92 % of control

CCCCCCCCOc1ccc(/C=C/C(C)=N/NC(N)=NC)cc1OC
inactive: dose: 7.5 mg/kg/injection, schedule: Q01DX005 (ip), vehicle: saline with Tween-80 111 % of control | dose: 15.0 mg/kg/injection, schedule: Q01DX005 (ip), vehicle: saline with Tween-80 95 % of control | dose: 30.0 mg/kg/injection, schedule: Q01DX005 (ip), vehicle: saline with Tween-80 102 % of control

O=C1NC(CO)C(=O)NC1CO (configuration not stated)
inactive: dose: 12.5 mg/kg/injection, schedule: Q01DX009 (ip), vehicle: distilled water + Tween-80 90 % of control | dose: 25.0 mg/kg/injection, schedule: Q01DX009 (ip), vehicle: distilled water + Tween-80 92 % of control | dose: 50.0 mg/kg/injection, schedule: Q01DX009 (ip), vehicle: distilled water + Tween-80 90 % of control | dose: 50.0 mg/kg/injection, schedule: Q01DX009 (ip), vehicle: saline 98 % of control | dose: 50.0 mg/kg/injection, schedule: Q04DX003 (ip), vehicle: saline with Tween-80 100 % of control | dose: 100.0 mg/kg/injection, schedule: Q01DX009 (ip), vehicle: distilled water + Tween-80 93 % of control | [8] 95 % of control | dose: 100.0 mg/kg/injection, schedule: Q04DX003 (ip), vehicle: saline with Tween-80 100 % of control | dose: 200.0 mg/kg/injection, schedule: Q01DX009 (ip), vehicle: distilled water + Tween-80 90 % of control | [9] 98 % of control | dose: 200.0 mg/kg/injection, schedule: Q04DX003 (ip), vehicle: saline with Tween-80 99 % of control | dose: 400.0 mg/kg/injection, schedule: Q01DX009 (ip), vehicle: distilled water + Tween-80 90 % of control | [10] 104 % of control | dose: 400.0 mg/kg/injection, schedule: Q04DX003 (ip), vehicle: saline with Tween-80 99 % of control

c1cc2cc(c1)CSCCCSCc1cccc(c1)CSCCCSC2
inactive: dose: 50.0 mg/kg/injection, schedule: Q04DX002 (ip), vehicle: saline 103 % of control | dose: 100.0 mg/kg/injection, schedule: Q04DX002 (ip), vehicle: saline 105 % of control | dose: 200.0 mg/kg/injection, schedule: Q04DX002 (ip), vehicle: saline 100 % of control

CC(Cc1ccc2c(c1)OCO2)NN (configuration not stated)
inactive: [5] 102 % of control | [6] 96 % of control | [7] 98 % of control

COc1cc(N=Nc2ccc(N=Nc3ccc4cc(S(=O)(=O)O)cc(S(=O)(=O)O)c4c3)c(C)c2)c(C)cc1NC(=O)c1ccc(NC(=O)c2ccc(N)cc2)cc1
inactive: dose: 25.0 mg/kg/injection, schedule: Q01DX005 (ip), vehicle: Klucel (hydroxypropylcellulose) (HPC) 103 % of control and 108 % of control | [2] 107 % of control and 111 % of control and 117 % of control | [3] 103 % of control and 116 % of control | [4] 107 % of control and 112 % of control and 97 % of control

CC(C)(C(=O)c1ccccc1)C(=O)c1ccccc1
inactive: [1] 95 % of control | dose: 100.0 mg/kg/injection, schedule: Q01DX009 (ip), vehicle: saline with Tween-80 100 % of control | dose: 200.0 mg/kg/injection, schedule: Q01DX009 (ip), vehicle: saline with Tween-80 95 % of control

COC(=O)/C=C/c1cc(=O)n2c(nc3ccccc32)s1
inactive: dose: 15.0 mg/kg/injection, schedule: Q01DX005 (ip), vehicle: Klucel (hydroxypropylcellulose) (HPC) 100 % of control | dose: 30.0 mg/kg/injection, schedule: Q01DX005 (ip), vehicle: Klucel (hydroxypropylcellulose) (HPC) 89 % of control | dose: 60.0 mg/kg/injection, schedule: Q01DX005 (ip), vehicle: Klucel (hydroxypropylcellulose) (HPC) 86 % of control

c1ccc2c3cc(cc2c1)OCCOCCOCCOc1ccc2ccccc2c1-c1c(ccc2ccccc12)OCCOCCOc1ccc2ccccc2c1-3
inactive: dose: 100.0 mg/kg/injection, schedule: Q01DX001 (ip), vehicle: saline with Tween-80 97 % of control | dose: 200.0 mg/kg/injection, schedule: Q01DX001 (ip), vehicle: saline with Tween-80 94 % of control

CNCCc1ccc(O)c(O)c1
inactive: [8] 108 % of control and 118 % of control | [9] 111 % of control and 98 % of control | [10] 116 % of control and 90 % of control

O=C(Oc1c(OC(=O)c2ccccc2)c(OC(=O)c2ccccc2)c(OC(=O)c2ccccc2)c(OC(=O)c2ccccc2)c1OC(=O)c1ccccc1)c1ccccc1
inactive: dose: 100.0 mg/kg/injection, schedule: Q04DX002 (ip), vehicle: saline with Tween-80 107 % of control | dose: 200.0 mg/kg/injection, schedule: Q04DX002 (ip), vehicle: saline with Tween-80 94 % of control | dose: 400.0 mg/kg/injection, schedule: Q04DX002 (ip), vehicle: saline with Tween-80 89 % of control

FC(F)(F)c1ssc1C(F)(F)F
inactive: dose: 100.0 mg/kg/injection, schedule: Q01DX001 (ip), vehicle: other 99 % of control | dose: 200.0 mg/kg/injection, schedule: Q01DX001 (ip), vehicle: other 104 % of control
